Earlier results as cited in US6586615B1, “α-aminoboronic acids prepared by novel synthetic methods” (Bristol-Myers Squibb Company, priority 2001, dated 2003).

Biological target: chymotrypsin (Bos taurus, UniProt P00766)
Details: inhibits chymotrypsin; background, Matteson J. Am. Chem. Soc. 103, 5241-5242 (1981)

CC(=O)NC(Cc1ccccc1)B(O)O (stereo not shown) [Ac-boroPhe-OH]
Ki: 2100 nM
